# Data: US8202892B2, “Advanced glycation end products as active ingredients” (Henkel AG & Co. KGaA, priority 2007, dated 2012)
# Columns and labels:
# Type in all cases: cell-based
# IGFBP3 = experiment: Relative gene expression in reconstructed dermal papillae: IGFBP3; details: 24 hours, untreated medium = 1.00
# Method: (§1) Reconstructed dermal papillae as described in European patent 1 455 854 were systemically treated for 24 hours with each of the test substances listed in Table 7 in the cited concentrations. The relative gene expression profile was determined for the markers HGF and KGF (important markers of the anagen phase of the hair cycle) and TGF-beta 1, TGF-beta 2 and IGFBP3 (important markers of the catagen phase of the hair cycle). Expression for incubation with the untreated medium served as the reference; values presented in the Table illustrate the differential gene expression. A differential gene expression that is 1.66 times or greater than the absolute numerical value of the control gene expression is regarded as significant.
# TGF-beta 2 = experiment: Relative gene expression in reconstructed dermal papillae: TGF-beta 2; details: 24 hours, untreated medium = 1.00
# Method: as §1
# HGF = experiment: Relative gene expression in reconstructed dermal papillae: HGF; details: 24 hours, untreated medium = 1.00, 1.66 times or greater significant
# Method: as §1
# TGF-beta 1 = experiment: Relative gene expression in reconstructed dermal papillae: TGF-beta 1; details: 24 hours, untreated medium = 1.00
# Method: as §1
# KGF = experiment: Relative gene expression in reconstructed dermal papillae: KGF; details: 24 hours, untreated medium = 1.00
# Method: as §1
# fibroblasts [1] = experiment: Relative vitality (cell activity) of cultivated fibroblasts, redox dye WST-1; details: untreated control = 100%
# Method: Vitality of the cultivated cells was determined by means of redox dyes. These dyes penetrate into the cells and are reduced by electron capture at the external mitochondrial membrane. This reduction requires a color change that is subsequently photometrically analyzed. Vitality was quantified by setting the untreated control to 100% and the measured values of the samples treated with the substances were in reference to that figure. Cell damaging means a relative vitality of less than 80%, and cell activating means greater than or equal to 120%. Cell Proliferation Reagent Wst-1 (Roche Applied Science, Mannheim, Germany) was used for this test.
# IL-8 = experiment: Basal release of IL-8 from HaCaT keratinocytes, ELISA; details: 0.5%
# Method: Measurement of the basal release of IL-8 provides information on the effects of substances on inflammation reactions. IL-8 is a pro-inflammatory cytokine, which plays a central role in the inflammation cascade of the skin. A reduction of the basal release of IL-8 points to potential inflammation inhibiting effects of the studied substances. In order to determine the release of the IL-8, HaCaT keratinocytes were incubated in Hanks medium with glutamax, 5% FCS and antibiotics in 24 well culture vessels. On day 2 after seeding, cells were incubated with the test substances in a concentration of 0.5%. After treatment for 15-20 h the cell culture supernatant was removed and the amount of released IL-8 was quantified by ELISA. The Quantikine IL-8 from RnD-Systems (Wiesbaden, Germany) was used for these analyses. Values illustrated in Table 5 are relative values with respect to the untreated controls from 4 independent experiments.
# [2] = test system: organo-typical cell cultures (reconstructed dermal papillae); experiment: ATP production, ATPLite-M luciferase assay; details: dermal papillae cells
# Method: ATP determinations were made using the ATPLite™-M Assays (from Packard). The test principle of this assay is based on the fact that the lucerifase from Photinus pyralis catalyzes a reaction in which, in the presence of ATP, D-luciferin is converted to oxyluciferin. Green light is emitted in this reaction and can be measured with an illuminometer. The emitted bioluminescence light is proportional to the amount of ATP present. Determination of ATP activity is carried out in organo-typical cell cultures (reconstructed dermal papillae according to EP 1 455 854). Treatment with the substance mixture is carried out for 24 hours against an untreated control. The cells were then lysed with 100 μl/cavity of a lyse buffer contained in a test kit for 5 minutes on a shaker. The cells were then incubated an additional 5 minutes with 100 μl/cavity of the supplied substrate solution on the shaker, and the reaction mixture was subsequently transferred into a black microtitre plate. Luminescence was measured after an incubation time of 10 minutes in the dark.
# [3] = test system: Hepatocyte Growth Factor (HGF); experiment: HGF release from reconstructed hair follicle models, ELISA
# Source text: (§2) Both the Hepatocyte Growth Factor (HGF) and Keratinocyte Growth Factor (KGF) are important regulators of the hair cycle. A change in the availability for the substances that regulate the hair cycle in comparison with the untreated controls should be assumed. The release of HGF and KGF can be quantified with the help of commercially available ELISA kits (Quantikine, RnD-Systems, Wiesbaden, Germany). For this, reconstructed hair follicle models, which are described in the European patent 1 455 854, were incubated with the test substances for 72 hours and the concentration of the growth factors in the medium was determined in the described manner. In order to be able to rule out that the described effects could have been caused by unreacted sugar (glucose or lactose), the respective individual components were tested at the highest possible concentration. The quantities of the untreated controls were set to 100% and the quantities of the treated samples were relative to these. The standard deviations were calculated from the three biological approaches.
# [4] = test system: Keratinocyte Growth Factor (KGF); experiment: KGF release from reconstructed hair follicle models, ELISA
# Source text: as §2
# fibroblasts [5] = experiment: Proliferation of fibroblasts by CyQuant; details: for Proliferation MW: untreated control = 100%
# Source text: Determination of the proliferation of the cultivated cells provides information on the status of the cell division of the treated cells. Both cell division stimulating and cell division inhibiting substances can be defined with this analysis. An outstanding feature during the cell division is the duplication of the DNA. During the new synthesis, nucleotides are built into the newly formed DNA strand. The proliferation can be measured by offering a non-natural nucleotide derivative (bromo deoxy uridine, BrdU) to the cells for the new synthesis; the BrdU can be subsequently detected with specific antibodies. The amount of newly synthesized DNA can be quantified fluorimetrically and provides proportional information on the degree of the cell division process. Proliferation was determined by setting the untreated control to 100% and the measured values of the samples treated with the substances were in reference to that figure. For a relative proliferation of less than 80% the substance effect is said to be inhibitive, for greater than or equal to 120% the substance effect is considered to be stimulative. The CyQuant Assay Cell Proliferation Assay from Molecular Probes was used for this test according to manufacturer's directions.
# [6] = test system: markers of anagen and catagen phase of the hair cycle; experiment: Relative gene expression profile of the markers of the hair cycle (statements in words); details: 0.1 wt. %
# Method: as §1
# [7] = 0.40% w/v, 72 hours, untreated = 100%
# [8] = reconstructed hair follicle model
SMILES,Differential gene expression IGFBP3 (Catagen) (IGFBP3; 0.01% (wt. %)),Differential gene expression IGFBP3 (Catagen) (IGFBP3; 0.1% (wt. %)),Differential gene expression TGFβ2 (Catagen) (TGF-beta 2; 0.01% (wt. %)),Differential gene expression TGFβ2 (Catagen) (TGF-beta 2; 0.1% (wt. %)),Differential gene expression HGF (Anagen) (HGF; 0.01% (wt. %)),Differential gene expression HGF (Anagen) (HGF; 0.1% (wt. %)),Differential gene expression TGFβ1 (Catagen) (TGF-beta 1; 0.01% (wt. %)),Differential gene expression TGFβ1 (Catagen) (TGF-beta 1; 0.1% (wt. %)),Differential gene expression KGF (Anagen) (KGF; 0.01% (wt. %)),Differential gene expression KGF (Anagen) (KGF; 0.1% (wt. %)),further results
"O=CC(=O)C[C@H](O)[C@H](O)CO [3-Desoxyglucosulose (18), 3-desoxyglucosulose]",−1.20,−2.12,−1.67,−1.54,−2.09,−1.78,1.02,−1.27,−1.33,−1.93,–
"N[C@@H](CCCCNCC(=O)O)C(=O)O [Carboxymethyllysine (13), N-ε-carboxymethyllysine]",–,1.98,–,−1.07,–,−1.77,–,1.35,–,1.24,–
"N[C@@H](CCCCNCC(=O)[C@@H](O)[C@H](O)[C@H](O)CO)C(=O)O [Fructoselysine (12), N-ε-fructosyllysine]",−1.44,−1.83,−2.40,−2.40,−1.92,−1.69,1.04,−1.10,−1.96,−2.49,–
"OC[C@H]1O[C@@H](O[C@H]2[C@H](O)[C@@H](O)C(O)O[C@@H]2CO)[C@H](O)[C@@H](O)[C@H]1O (stereo partly drawn) [Lactose, D-(+)-lactose]",–,–,–,–,–,–,–,–,–,–,"Vitality MW (fibroblasts [1]; 250 μg/ml): 97.5%; Vitality MW (fibroblasts [1]; 500 μg/ml): 98.6%; Vitality MW (fibroblasts [1]; 1000 μg/ml): 102.0%; Vitality MW (fibroblasts [1]; 2000 μg/ml): 116.4%; Vitality MW (fibroblasts [1]; 4000 μg/ml): 119.8%; Effect on basal release of IL-8 (in words) (IL-8): did not lead to a significant change; Effect on synthesis rate of ATP (in words) [2]: did not lead at any time and at any concentration to a change; HGF release MW % [3, 7]: 65.3%; Effect on release of HGF (in words) [3, 8]: reduced release of HGF; KGF release MW % [4, 7]: 101.2%; Effect on KGF release (in words) [4, 8]: distinct effect due to treatment with sugars (lactose and glucose) could not be established; Effect on cell division activity of fibroblasts (in words) (fibroblasts [5]): No effect could be detected; Proliferation MW (fibroblasts [5]; 250 μg/ml): 107.2%; Proliferation MW (fibroblasts [5]; 500 μg/ml): 90.4%; Proliferation MW (fibroblasts [5]; 1000 μg/ml): 111.7%; Proliferation MW (fibroblasts [5]; 2000 μg/ml): 107.6%; Proliferation MW (fibroblasts [5]; 4000 μg/ml): 77.5%"
"Cc1occc(=O)c1O [Maltol, 3-hydroxy-2-methyl-4H-pyran-4-one]",−1.69,–,−1.86,–,−1.23,–,−1.28,–,−1.87,–,Differential gene expression IGFBP3 (Catagen) (IGFBP3; 0.025% (wt. %)): −3.63; Differential gene expression TGFβ2 (Catagen) (TGF-beta 2; 0.025% (wt. %)): −3.21; Differential gene expression HGF (Anagen) (HGF; 0.025% (wt. %)): 1.07; Differential gene expression TGFβ1 (Catagen) (TGF-beta 1; 0.025% (wt. %)): −1.20; Differential gene expression KGF (Anagen) (KGF; 0.025% (wt. %)): −3.02
"Cc1c(O)c(=O)ccn1CCCC[C@H](N)C(=O)O [Maltosine (15), maltosine]",–,7.55,–,−2.24,–,−2.09,–,3.39,–,−1.45,Gene expression of markers of catagen (in words) [6]: simultaneously increased gene expression of markers of catagen
"CC1NC(NCCC[C@H](N)C(=O)O)=NC1=O (stereo partly drawn) [Ornithinoimidazolinone (16), ornithinoimidazolinone]",–,−1.60,–,−1.66,–,−3.30,–,1.08,–,−1.25,–
